Laboratory results taken from US5270339A, “Phenoxybenzene derivative” (Kanagafuchi Kagaku Kogyo Kabushiki Kaisha, priority 1991, dated 1993).
Structures can show the parent of a compound that is named as a salt.

What was measured:
[1] = Acute toxicity test, oral; assay type: in vivo, ddY male mice; conditions: mouse, in vivo, ddY mice, 2 weeks observation
Experimental: With respect to the compounds 1 to 86 shown in Table 1 as test compounds, the acute toxicity was examined using ddY mice according to the following method.
In each group, six male ddY mice weighing 27 to 30 g were employed. The compounds 1 to 86 suspended in an aqueous solution of 0.5% sodium carboxymethylcellulose were administered orally in a volume of 0.1 ml/10 g body weight. […] The LD50 (mg/kg) values were estimated from the ratio of the number of dead mice to the number of mice used.

[2] = test system: experimental amnesia in mice induced by cycloheximide; experiment: Anti-amnesic effect: passive avoidance task (step-through), cycloheximide-induced amnesia; assay type: in vivo, ddY male mice; conditions: for Step-through latency: mean of group; for responders at 3 mg/kg / responders at 1 mg/kg: Mus musculus, mice with latency > 100 seconds, read-out: Ratio of memory
Experimental: As experimental animals, Wistar male rats and ddY male mice were used for the tests after they were housed for a week under every 12 hours' dark-light cycle at room temperature of 24° to 26° C.
The effect on experimental amnesia in mice induced by cycloheximide was evaluated.
The experiment was carried out using an experimental apparatus of passive avoidance task for mice (made by Ohara-ika-sangyo K. K.) comprising a box divided into the two compartments of dark and light. That is, the dark compartment [a box having a reverse trapezoid cross section (height: 8 cm, base line: 5 cm, oblique line: 9.5 cm) and having the length of 14 cm] was shield from a light with a black plastic case and was floored with stainless grids for giving an electrical shock so that an electricity might be turned on a determined time after interception of a photobeam placed in the dark compartment. The light compartment made of transparent plastic (a box of the same shape as that of the dark compartment having the length of 16 cm, lightened from a location spaced 25 cm above by a 60 W electric lamp) was provided adjacent to the dark compartment. Between the two compartments, there was provided a circular entrance having the diameter of 3 cm with a guillotine door which could be opened and closed. By using the above-mentioned dark-light box, the experiment was carried out according to the following procedure.
A mouse (5 week-old) previously conditioned in the dark-light box was put in the light compartment and the guillotine door was opened. Three seconds after the mouse moved into the dark compartment and interrupted the photobeam, 0.3 mA electrical shock was given to limbs for 3 seconds from the floor grid (aquisition trial). Just after the mouse rushed into the light compartment, the door was shut and the […] in the light compartment was picked out to return to his home cage. After 24 hours, the mouse was placed again in the light compartment and the period from the opening of the guillotine door to the time the mouse completely entered the dark compartment was recorded maximally 300 seconds as a step-through latency (retention trial).
The amnesia was induced by subcutaneous injection of cycloheximide (120 mg/kg) dissolved in saline 10 minutes before the aquisition trial. As a control, the same amount of saline alone was administered. […]
A ratio of number of mice showing the step-through latency of more than 100 seconds in the group was defined as a ratio of memory for convenience's sake.
The step-through latency in Table 2 was the mean value for each treated group.

| Compound | LD50 at 336 h [1] | Step-through latency ([2]; 3 mg/kg oral) | responders at 3 mg/kg ([2]; 3 mg/kg oral) | Step-through latency ([2]; 1 mg/kg oral) | responders at 1 mg/kg ([2]; 1 mg/kg oral) |
| --- | --- | --- | --- | --- | --- |
| O=C1NCCC1=Cc1ccc(Oc2ccccc2)cc1 [Compound 2] | ≥ 500 mg/kg | 188 s | 75% | – | – |
| O=C1NCCC1=Cc1ccccc1Oc1ccccc1 [Compound 3] | ≥ 500 mg/kg | 173 s | 75% | – | – |
| Cc1ccc(Oc2cccc(C=C3CCNC3=O)c2)cc1 [Compound 4] | ≥ 500 mg/kg | – | – | – | – |
| COc1ccc(Oc2cccc(C=C3CCNC3=O)c2)cc1 [Compound 5] | ≥ 500 mg/kg | 134 s | 50% | – | – |
| O=C1NCCC1=Cc1cccc(Oc2ccc(Cl)cc2)c1 [Compound 6] | ≥ 500 mg/kg | 101 s | 31% | – | – |
| O=C1NCCC1=Cc1ccc(Oc2ccccc2)c([N+](=O)[O-])c1 [Compound 7] | ≥ 500 mg/kg | 113 s | 50% | – | – |
| Nc1cc(C=C2CCNC2=O)ccc1Oc1ccccc1 [Compound 8] | ≥ 500 mg/kg | 118 s | 38% | – | – |
| CN1CCC(=Cc2cccc(Oc3ccccc3)c2)C1=O [Compound 9] | ≥ 500 mg/kg | 151 s | 75% | – | – |
| CCCCN1CCC(=Cc2cccc(Oc3ccccc3)c2)C1=O [Compound 12] | ≥ 500 mg/kg | 152 s | 63% | – | – |
| CCCCCCN1CCC(=Cc2cccc(Oc3ccccc3)c2)C1=O [Compound 13] | ≥ 500 mg/kg | 132 s | 38% | – | – |
| CCN1CCC(=Cc2ccc(Oc3ccccc3)cc2)C1=O [Compound 14] | ≥ 500 mg/kg | 100 s | 25% | – | – |
| CCN1CCC(=Cc2cccc(Oc3ccc(C)cc3)c2)C1=O [Compound 15] | ≥ 500 mg/kg | – | – | – | – |
| O=C1C(=Cc2cccc(Oc3ccccc3)c2)CCN1C1CC1 [Compound 17] | ≥ 500 mg/kg | – | – | – | – |
| CCN1CCC(=Cc2ccc(Oc3ccccc3)cc2)C1 [Compound 18] | ≥ 500 mg/kg | – | – | – | – |
| CCN1CCC(=Cc2cccc(Oc3ccc(C)cc3)c2)C1 [Compound 19] | ≥ 500 mg/kg | – | – | 177 s | 75% |
| C=CN1CCC(=Cc2cccc(Oc3ccccc3)c2)C1=O [Compound 21] | ≥ 500 mg/kg | – | – | – | – |
| COCCN1CCC(=Cc2cccc(Oc3ccccc3)c2)C1=O [Compound 23] | ≥ 500 mg/kg | 71 s | 50% | – | – |
| O=C1C(=Cc2cccc(Oc3ccccc3)c2)CCN1CCOC1CCCCO1 (stereo not drawn) [Compound 24] | ≥ 500 mg/kg | 109 s | 38% | – | – |
| O=C1C(=Cc2cccc(Oc3ccccc3)c2)CCN1CCO [Compound 25] | ≥ 500 mg/kg | – | – | – | – |
| O=C1C(=Cc2cccc(Oc3ccccc3)c2)CCN1CCCl [Compound 27] | ≥ 500 mg/kg | – | – | – | – |
| CCOC(=O)CN1CCC(=Cc2cccc(Oc3ccccc3)c2)C1=O [Compound 28] | ≥ 500 mg/kg | 100 s | 50% | – | – |
| O=C(O)CN1CCC(=Cc2cccc(Oc3ccccc3)c2)C1=O [Compound 29] | ≥ 500 mg/kg | – | – | – | – |
| NC(=O)N1CCC(=Cc2cccc(Oc3ccccc3)c2)C1=O [Compound 30] | ≥ 500 mg/kg | – | – | – | – |
| COc1ccc(NC(=O)N2CCC(=Cc3cccc(Oc4ccccc4)c3)C2=O)cc1 [Compound 31] | ≥ 500 mg/kg | 100 s | 50% | – | – |

| Compound | LD50 at 336 h [1] | Step-through latency ([2]; 3 mg/kg oral) | responders at 3 mg/kg ([2]; 3 mg/kg oral) | Step-through latency ([2]; 1 mg/kg oral) | responders at 1 mg/kg ([2]; 1 mg/kg oral) |
| --- | --- | --- | --- | --- | --- |
| NC(=O)CCN1CCC(=Cc2cccc(Oc3ccccc3)c2)C1=O [Compound 33] | ≥ 500 mg/kg | – | – | – | – |
| CNC(=O)CN1CCC(=Cc2cccc(Oc3ccccc3)c2)C1=O [Compound 34] | ≥ 500 mg/kg | – | – | – | – |
| CN(C)C(=O)CN1CCC(=Cc2cccc(Oc3ccccc3)c2)C1=O [Compound 35] | ≥ 500 mg/kg | – | – | 103 s | 50% |
| CN(C)CCNC(=O)CN1CCC(=Cc2cccc(Oc3ccccc3)c2)C1=O [Compound 36] | ≥ 500 mg/kg | – | – | 163 s | 75% |
| N#CCN1CCC(=Cc2cccc(Oc3ccccc3)c2)C1=O [Compound 37] | ≥ 500 mg/kg | – | – | 110 s | 50% |
| CN(C)N1CCC(=Cc2cccc(Oc3ccccc3)c2)C1=O [Compound 38] | ≥ 500 mg/kg | – | – | 100 s | 50% |
| NCCN1CCC(=Cc2cccc(Oc3ccccc3)c2)C1=O [Compound 39] | ≥ 500 mg/kg | – | – | – | – |
| CN(C)CCN1CCC(=Cc2cccc(Oc3ccccc3)c2)C1=O [Compound 40] | ≥ 500 mg/kg | – | – | 116 s | 50% |
| CC(=O)N1CCC(=Cc2cccc(Oc3ccccc3)c2)C1=O [Compound 41] | ≥ 500 mg/kg | 80 s | 25% | – | – |
| O=C1C(=Cc2cccc(Oc3ccccc3)c2)CCN1C(=O)c1ccccc1 [Compound 42] | ≥ 500 mg/kg | – | – | 80 s | 25% |
| COc1ccc(C(=O)N2CCC(=Cc3cccc(Oc4ccccc4)c3)C2=O)cc1 [Compound 43] | ≥ 500 mg/kg | 179 s | 100% | – | – |
| O=C(C=Cc1ccccc1)N1CCC(=Cc2cccc(Oc3ccccc3)c2)C1=O [Compound 44] | ≥ 500 mg/kg | 132 s | 38% | – | – |
| CC(=O)CN1CCC(=Cc2cccc(Oc3ccccc3)c2)C1=O [Compound 45] | ≥ 500 mg/kg | – | – | 169 s | 50% |
| O=C1C(=Cc2cccc(Oc3ccccc3)c2)CCN1c1ccccc1 [Compound 46] | ≥ 500 mg/kg | 172 s | 75% | – | – |
| O=C1C(=Cc2cccc(Oc3ccccc3)c2)CCN1c1ccc(F)cc1F [Compound 47] | ≥ 500 mg/kg | – | – | – | – |
| O=C1C(=Cc2cccc(Oc3ccccc3)c2)CCN1Cc1ccccc1 [Compound 48] | ≥ 500 mg/kg | 117 s | 63% | – | – |
| O=C1C(=Cc2cccc(Oc3ccccc3)c2)CCN1CCc1ccccc1 [Compound 51] | ≥ 500 mg/kg | – | – | – | – |
| CCN1C(=O)C(=Cc2cccc(Oc3ccccc3)c2)CC1O (stereo not drawn) [Compound 54] | ≥ 500 mg/kg | – | – | – | – |
| CC1CNC(=O)C1=Cc1cccc(Oc2ccccc2)c1 (stereo not drawn) [Compound 60] | ≥ 500 mg/kg | – | – | – | – |
| C(=C1CCN(CCOC2CCCCO2)C1)c1cccc(Oc2ccccc2)c1 (stereo not drawn) [Compound 70] | ≥ 500 mg/kg | – | – | – | – |
| CCOC(=O)N1CCC(=Cc2cccc(Oc3ccccc3)c2)C1 [Compound 72] | ≥ 500 mg/kg | – | – | – | – |
| CCC1NCCC1=Cc1cccc(Oc2ccccc2)c1 (stereo not drawn) [Compound 77] | ≥ 500 mg/kg | – | – | – | – |
| C1=Cc2cccc(OCC3CNCCO3)c2C1 (stereo not drawn) [Indeloxazine hydrochloride, reference compound] | – | 131 s | 43% | – | – |
